Results taken from patent publication US10774102B2, “Galactoside inhibitor of galectins” (Galecto Biotech AB, priority 2015, dated 2020).

What was measured:
galectins = conditions: cited from earlier work
[1] = Pharmacokinetic studies in mice; conditions: mouse, in vivo
Excerpt: This is exemplified by Example 9 3,4-Dichlorophenyl 3-deoxy-3-[4-(3,4,5-trifluorophenyl)-1H-1,2,3-triazol-1-yl]-1-thio-α-D-galactopyranoside in the table below.

galectin-3 = galectin-3 (Homo sapiens (Human), UniProt P17931); test: Fluorescence anisotropy assay of galectin-3 affinity (compound inhibits galectin binding to a fluorescein tagged saccharide probe); conditions: high affinity probe, 50 nM galectin-3, 100 nM albumin
galectin-3, sequence (P17931 whole entry): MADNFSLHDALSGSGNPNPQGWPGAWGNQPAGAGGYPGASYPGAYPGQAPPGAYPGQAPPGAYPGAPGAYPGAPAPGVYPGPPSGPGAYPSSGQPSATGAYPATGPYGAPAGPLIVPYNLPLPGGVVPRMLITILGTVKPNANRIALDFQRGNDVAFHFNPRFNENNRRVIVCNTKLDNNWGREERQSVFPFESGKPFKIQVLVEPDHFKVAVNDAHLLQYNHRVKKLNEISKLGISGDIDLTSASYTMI
Description: 100 nM albumin was included as a carrier to prevent protein loss at such low concentration of galectin.

SMILES | Kd (galectin-3) | further results
O=C[C@H](O)[C@@H](O)[C@@H](O)[C@H](O)CO [D-galactose, D-(+)-galactose] | – | affinity relative to lactose (times lower) (galectins; galectins, compared with lactose): 50-100 times lower
OC[C@H]1O[C@H](Sc2ccc(Cl)c(Cl)c2)[C@H](O)[C@@H](n2cc(-c3cc(F)c(F)c(F)c3)nn2)[C@H]1O [Example 9, 3,4-Dichlorophenyl 3-deoxy-3-[4-(3,4,5-trifluorophenyl)-1H-1,2,3-triazol-1-yl]-1-thio-α-D-galactopyranoside] | – | bioavailability ([1]; 10 mg/kg, oral, read-out: Bioavailability (F)): 75%; Cmax ([1]; po, 10 mg/kg): 16 µM; clearance ([1]; read-out: Clearance (CL)): 1.2 mL/min/kg; half-life ([1]; read-out: Halflife (t½) (converted)): 4.5 h
OCC1O[C@H](SC2CCCC(F)(F)C2)C(O)[C@@H](n2cc(-c3cc(F)c(F)c(F)c3)nn2)[C@H]1O (stereo partly drawn) [Example 76, 3,3′-difluoro-cyklohexyl 3-deoxy-3-[4-(3,4,5-trifluorophenyl)-1H-1,2,3-triazol-1-yl]-1-thio-α-D-galactopyranoside] | 0.24 µM | –
O=S(=O)(c1cncc(Br)c1)[C@H]1O[C@H](CO)[C@H](O)[C@H](n2cc(-c3cc(F)c(F)c(F)c3)nn2)[C@H]1O [Example 92, 5-Bromopyridin-3-yl 3-deoxy-3-[4-(3,4,5-trifluorophenyl)-1H-1,2,3-triazol-1-yl]-α-D-galactopyranosyl sulfone] | 0.031 µM | –
CN(C)c1cccc2cc(S(=O)(=O)[C@H]3OC(CO)[C@H](O)[C@H](n4cc(-c5cc(F)c(F)c(F)c5)nn4)C3O)ccc12 (stereo partly drawn) [Example 95, 5-Dimethylamino-naphtalen-2-yl 3-deoxy-3-[4-(3,4,5-trifluorophenyl)-1H-1,2,3-triazol-1-yl]-α-D-galactopyranosyl sulfone] | 0.96 µM | –
O=C(N[C@@H]1C(O)[C@@H](Sc2ccc(Cl)c(Cl)c2)OC(CO)[C@@H]1O)c1cc(F)c(F)c(F)c1 (stereo partly drawn) [Example 96, 3,4-dichlorophenyl-3-deoxy-3-(3,4,5-trifluorobenzamido)-1-thio-α-D-galactopyranoside] | 3.5 µM | –
CCOC(=O)c1cn([C@@H]2[C@@H](O)[C@@H](Sc3ccc(Cl)c(Cl)c3)O[C@H](CO)[C@@H]2O)nn1 [Example 97, 3,4-Dichlorophenyl 3-deoxy-3-[4-(ethoxycarbonyl)-1H-1,2,3-triazol-1-yl]-1-thio-α-D-galactopyranoside] | 3.5 µM | –
O=c1oc2ccc(F)c(F)c2cc1CO[C@@H]1[C@@H](O)[C@@H](Sc2ccc(Cl)c(Cl)c2)O[C@H](CO)[C@@H]1O [Example 99, 3,4-Dichlorophenyl 3-O-[(5,6-Difluoro-2-oxo-3-chromenyl)methyl]-1-thio-α-D-galactopyranoside] | 0.92 µM | –
CCCC(=O)c1cn([C@@H]2[C@@H](O)[C@@H](Sc3ccc(Cl)c(Cl)c3)O[C@H](CO)[C@@H]2O)nn1 [Example 102, 3,4-Dichlorophenyl 3-deoxy-3-[4-(propyl-carbonyl)-1H-1,2,3-triazol-1-yl]-1-thio-α-D-galactopyranoside] | 1.01 µM | –
OC[C@H]1O[C@@H](O[C@H]2[C@H](O)[C@@H](O)C(O)O[C@@H]2CO)[C@H](O)[C@@H](O)[C@H]1O (stereo partly shown) [lactose] | – | Kd (galectins; all galectins): 500 to 1000 µM
